Experimental data reported in US20080050452A1, “METAL-CONTAINING FORMULATIONS AND METHODS OF USE” (priority 2006, published 2008).

System: B. multivorans
Experiment: Minimal bactericidal concentration (MBC) assay
Assay type: cell-based, Burkholderia multivorans
Protocol: Minimal bactericidal concentration (MBC) assay—Overnight-grown MIC plates, prepared as described in Example 16, were evaluated to determine the MIC. Culture was then sampled from wells at and near the MIC using sterile inoculating loops, and transferred to fresh MHA plates to determine if viable bacteria remained. […] The MBC was determined as the well in the MIC plate which contained the lowest concentration of silver yielding no bacterial growth on the MHA plate.

Measured: MBC

O=[N+]([O-])[O-].[Ag+] [AgNO3, silver nitrate]
3 parts silver per million: B. multivorans isolate B1 | B. multivorans isolate B2 | B. multivorans isolate B4
